Results taken from patent publication US20140045747A1, “METHODS FOR INCREASING AND MOBILIZING HEMATOPOIETIC STEM CELLS” (Cleveland Biolabs, Inc., priority 2007, published 2014).

What was measured:
[1] = system: hematopoietic stem and progenitor cells in bone marrow; assay: Kinetics of HSC number after CBLB612, bone marrow of C57Bl mice (Example 7); format: in vivo
Protocol: (§1) The following mobilization of HSC and progenitor cells from the bone marrow to peripheral blood after CBLB612 injection. […] The doses were calculated as intended dose/kg of average weight. The adjustment of a dose was accomplished by adjusting the concentration of an article for injection while keeping the injection volume constant. According to Table 13, with the exception of the PBS control group 8, all groups received a 5 mg/kg dose of AMD3100 one hour before euthanasia. Control group 7 received a 6.5 mg/kg does of AMD3100. Negative control group 8 received a single SC injection of 200 μl PBS one hour before blood collection. Study groups 1-6 received single SC injections of CBLB12 at 2 mg/kg at different time points prior to blood collection. Positive control group 9 received four daily SC injections of 0.1 mg/kg G-CSF.

[2] = system: hematopoietic stem and progenitor cells in bone marrow; assay: CBLB612 dose dependence of HSC number in mouse bone marrow (Example 6); format: in vivo, C57Bl/6NHsd mice; conditions: average, regimen per group b224: AMD3100 5 mg/kg SC 1 h before euthanasia, G-CSF four daily 0.1 mg/kg SC, 612 1.2 mg/kg SC 72 h
Protocol: (§2) The doses were calculated as intended dose/kg of average weight. The adjustment of a dose was accomplished by adjusting the concentration of an article for injection while keeping the injection volume constant.
(§3) According to Table 9, all groups received a single subcutaneous (SC) injection of 5 mg/kg of AMD3100 one hour before euthanasia. Control group 1 was injected with 5 mg/kg of AMD3100 only. Control group 2 was treated with four daily 0.1 mg/kg SC injections of G-CSF and on the fifth day the mice were injected with AMD3100. Control group 8 consisted of ICR mice and received the same treatment as Control group 2. Study groups 3, 4, 5, and 6 received a single SC injection of CBLB612 at 1.2; 0.4; 0.13; and 0.04 mg/kg doses, respectively, at 72 hours before blood collection. Group 7 received a single SC injection of 1.2 mg/kg CBLB612 at 24 hours before blood collection. Study group 9 was treated with four daily SC injections of 0.1 mg/kg G-CSF, a single SC injection of 1.2 mg/kg CBLB612 at 72 hours before blood collection, and a single SC injection of 5 mg/kg AMD3100 one hour before euthanasia at the fifth day after the first G-CSF injection.

[3] = system: hematopoietic stem and progenitor cells in peripheral blood; assay: Kinetics of HSC mobilization after CBLB612, peripheral blood of C57Bl mice (Example 7); format: in vivo
Protocol: as §1

[4] = system: hematopoietic stem and progenitor cells in peripheral blood; assay: CBLB612 dose dependence of HSC mobilization, peripheral blood of C57Bl mice (Example 6); format: in vivo; conditions: C57Bl/6NHsd mice, average, regimen per group b224: AMD3100 5 mg/kg SC 1 h before euthanasia, G-CSF four daily 0.1 mg/kg SC, 612 1.2 mg/kg SC 72 h
Protocol: as §2, §3

[5] = system: C57/B6 mice irradiated with 9 Gy; assay: Survival of lethally irradiated mice transfused with PWBC from treated donor mice (Example 2); format: in vivo; conditions: recipients irradiated 9 Gy, transfused with PWBC from donor mice treated with the compound; 5 mice at Day 0
Protocol: Blood transfused from lipopeptide-treated mice is capable of protecting recipient mice from the effects of radiation. […] To control for the effects of CBLB612, a group of mice was injected daily for four consecutive days with 100 μg/kg G-CSF, or with PBS.
Following the last injection, blood was collected from the treated mice by cardiac puncture and combined for each group (i.e., PBS negative controls, G-CSF positive controls, and CBLB612 experimental). Next, peripheral white blood cells (PWBC) were fractionated, and 200 μL of fractionated PWBC were injected into the tail veins of irradiated recipient mice. The amount of transfused PWBC was equivalent to the amount from one mouse.
Mice from the five test groups (i.e., PBS-, G-CSF-, and CBLB612-treated mouse blood transfusions, no transfusion, and bone marrow injection), previously irradiated with 9 Gy (a lethal dose for C57/B6 mice) for 2 h prior to transfusion, were observed and their survival rate assessed following transfusion.

[6] = AMD3100 5 mg/kg SC 1 h before collection
[7] = AMD3100 + 30%: 6.5 mg/kg SC 1 h before collection

With `c1cc(CN2CCCNCCNCCCNCC2)ccc1CN1CCCNCCNCCCNCC1` [AMD3100] the “7AAD−/LIN− (average number)” value [1, 6] was 2.44 ×10^6, the “KSL (average number)” value [1, 6] was 17184 and the “KSL/CD34+ (average number)” value [1, 6] was 14743. The “KSL/CD34− (average number)” value [1, 6] was 2689, the “LIN−/kit−/sca1+ (average number)” value [1, 6] was 206061 and the “LIN−/sca1−/kit+ (average number)” value [1, 6] was 163895. The “total number of cells (average)” value [1, 6] was 4.88 10^7, the “7AAD−/LIN− (average number)” value [1, 7] was 2.26 ×10^6 and the “KSL (average number)” value [1, 7] was 41791. The “KSL/CD34+ (average number)” value [1, 7] was 40873, the “KSL/CD34− (average number)” value [1, 7] was 1084 and the “LIN−/kit−/sca1+ (average number)” value [1, 7] was 148328. For the same molecule, the “LIN−/sca1−/kit+ (average number)” value [1, 7] was 281722, the “total number of cells (average)” value [1, 7] was 3.65 10^7 and the “7AAD−/LIN−” value [2] was 2.39 ×10^6. The KSL [2] was 1.37 ×10^4, the “KSL/CD34+” value [2] was 1.25 ×10^4 and the “KSL/CD34−” value [2] was 1.24 ×10^3. The “LIN−/kit−/sca1+” value [2] was 15.74 ×10^4, the “LIN−/sca1−/kit+” value [2] was 13.26 ×10^4 and the “total number of cells” value [2] was 4.47 10^7. For the same molecule, the “7AAD−/LIN− (average number)” value [3, 6] was 421616, the “KSL (average number)” value [3, 6] was 360 and the “KSL/CD34+ (average number)” value [3, 6] was 308. For the same molecule, the “KSL/CD34− (average number)” value [3, 6] was 56, the “LIN−/kit−/sca1+ (average number)” value [3, 6] was 23142 and the “LIN−/sca1−/kit+ (average number)” value [3, 6] was 1932. For the same molecule, the “total number of WBC (average)” value [3, 6] was 962.40 10^4/ml, the “7AAD−/LIN− (average number)” value [3, 7] was 302644 and the “KSL (average number)” value [3, 7] was 907. The “KSL/CD34+ (average number)” value [3, 7] was 856, the “KSL/CD34− (average number)” value [3, 7] was 63 and the “LIN−/kit−/sca1+ (average number)” value [3, 7] was 30938. For the same molecule, the “LIN−/sca1−/kit+ (average number)” value [3, 7] was 1816, the “total number of WBC (average)” value [3, 7] was 1111.05 10^4/ml and the “7AAD−/LIN−” value [4] was 254725. The KSL [4] was 238, the “KSL/CD34+” value [4] was 174 and the “KSL/CD34−” value [4] was 72. For the same molecule, the “LIN−/kit−/sca1+” value [4] was 40971, the “LIN−/sca1−/kit+” value [4] was 1104 and the “total number of WBC” value [4] was 629.95 10^4/ml.

B1: G-CSF: granulocyte-colony stimulating factor, a cytokine; positive control (protein, UniProt P09919 31-207, looked up)
Granulocyte …: TPLGPASSLPQSFLLKCLEQVRKIQGDGAALQEKLVSECATYKLCHPEELVLLGHSLGIPWAPLSSCPSQALQLAGCLSQLHSGLFLYQGLLQALEGISPELGPTLDTLQLDVADFATTIWQQMEELGMAPALQPTQGAMPAFASAFQRRAGGVLVASHLQSFLEVSYRVLRHLAQP
With B1 the “Number of Surviving Mice, Day 21” value [5] was 5, the “Number of Surviving Mice, Day 22” value [5] was 5 and the “Number of Surviving Mice, Day 23” value [5] was 5. For the same molecule, the “Number of Surviving Mice, Day 24” value [5] was 5.
